The target in one series is T1, human GLP-1 receptor (Homo sapiens, UniProt P43220).
T1 construct: expressed in transfected cells; host or cells: BHK cells (parent BHKTS13), clone FCW467-12A/KZ10-1, with CRE luciferase
The series can be described thus: GLP-1 receptor binding, 125I-GLP-1 displacement SPA on isolated membranes. Particulars: displacement of 125I-GLP-1 from membranes; read-out: IC50 GLP-1R. The method in brief:
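Test derivatives, serially diluted, competed with 125I-GLP-1(7-36)NH2 for the human GLP-1 receptor on BHK membranes, read by WGA-bead scintillation proximity after 2 h at 30°C, pH 7.4 HEPES/EGTA/MgCl2 buffer. Final serum albumin was either ≤0.001% or 2.0%; IC50 from non-linear fit.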
(Displacement assays read how much labelled ligand stays bound in the presence of the test substance.)

Series [1] is described as follows: Chemical stability assessment by RP-UPLC. Particulars: 333 μM, 8 mM phosphate buffer pH 7.3, 37° C. vs 5° C. Type of series: physicochemical. The method in brief: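 Purity loss = (purity after 14 days at 5° C. minus that at 37° C.) relative to the 5° C. value, purity being main-peak area % by RP-UPLC with UV at 215 nm. Samples were 333 μM in 8 mM phosphate, pH 7.3; gradient adjusted for outlying retention times.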

Numbered stars: 1 amine (or outer) side, 2 acyl side, 3 side chain; on linkers, the order of the positions; unused ones are H or OH. Bridge positions count the residues as written; N and C are the ends. Square brackets hold non-standard residues; d marks the D form. Side chains are listed from the residue outwards. Peptide text beside a SMILES is read from it. I, II: the chains in the order shown. * marks the point of attachment. C18 diacid = O=C(O)CCCCCCCCCCCCCCCCC(=O)*; γGlu = O=C(O)[C@H](CCC(=O)[*:2])N[*:1]; Ac4c = NC1(C(=O)O)CCC1; AEEA = NCCOCCOCC(=O)O; Aib = CC(C)(N)C(=O)O

T1 sequence (P43220 24-463): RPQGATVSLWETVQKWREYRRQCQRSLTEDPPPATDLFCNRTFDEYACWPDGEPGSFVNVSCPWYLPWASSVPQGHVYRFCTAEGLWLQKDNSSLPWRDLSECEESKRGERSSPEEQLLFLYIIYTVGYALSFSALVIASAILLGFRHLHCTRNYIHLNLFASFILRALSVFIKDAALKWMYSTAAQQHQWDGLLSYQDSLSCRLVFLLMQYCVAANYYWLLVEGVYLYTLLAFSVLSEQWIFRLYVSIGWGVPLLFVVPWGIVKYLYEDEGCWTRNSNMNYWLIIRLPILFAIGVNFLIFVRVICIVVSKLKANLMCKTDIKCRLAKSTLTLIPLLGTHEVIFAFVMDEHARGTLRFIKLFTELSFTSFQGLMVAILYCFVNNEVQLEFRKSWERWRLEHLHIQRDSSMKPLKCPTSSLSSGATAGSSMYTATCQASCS

Consider `CC(C)C[C@H](NC(=O)[C@H](CC(=O)O)NC(=O)[C@H](CC(C)C)NC(=O)[C@H](Cc1ccc(O)cc1)NC(=O)[C@H](CCCNC(=N)N)NC(=O)[C@H](CO)NC(=O)[C@H](CC(C)C)NC(=O)[C@H](CC(=O)O)NC(=O)[C@H](CO)NC(=O)[C@@H](NC(=O)[C@H](Cc1ccccc1)NC(=O)[C@@H](NC(=O)CNC(=O)[C@H](CCC(N)=O)NC(=O)C1(NC(=O)[C@@H](N)Cc2c[nH]cn2)CCC1)[C@@H](C)O)[C@@H](C)O)C(=O)N[C@@H](CCCNC(=N)N)C(=O)N[C@@H](CCCNC(=N)N)C(=O)N[C@@H](C)C(=O)N[C@@H](CCCNC(=N)N)C(=O)N[C@@H](CC(=O)O)C(=O)N[C@@H](Cc1ccccc1)C(=O)N[C@H](C(=O)N[C@@H](CCC(N)=O)C(=O)N[C@@H](Cc1c[nH]c2ccccc12)C(=O)N[C@@H](CC(C)C)C(=O)N[C@@H](CC(C)C)C(=O)N[C@@H](CCCCNC(=O)CC[C@H](NC(=O)CC[C@H](NC(=O)COCCOCCNC(=O)COCCOCCNC(=O)CC[C@H](NC(=O)CC[C@H](NC(=O)CCCCCCCCCCCCCCCCC(=O)O)C(=O)O)C(=O)O)C(=O)O)C(=O)O)C(=O)N[C@H](C(N)=O)[C@@H](C)O)C(C)C` [Example 46, N^ε28-[(4S)-4-carboxy-4-[[(4S)-4-carboxy-4-[[2-[2-[2-[[2-[2-[2-[[(4S)-4-carboxy-4-[[(4S)-4-carboxy-4-(17-carboxyheptadecanoylamino)butanoyl]amino]butanoyl]amino]ethoxy]ethoxy]acetyl]amino]ethoxy]ethoxy]acetyl]amino]butanoyl]amino]butanoyl]-[Acb2,Leu10,Arg12,Leu16,Arg20,Leu27,Lys28]-Glucagon amide] (H-H[Ac4c]QGTFTSDLSRYLDLRRARDFVQWLLK([γGlu-γGlu-AEEA-AEEA-γGlu-γGlu-C18 diacid])T-NH2; N-terminus assumed), for which, on human GLP-1 receptor, the IC50 was 1100 pM. For the same molecule, the “Purity loss; 14 days at 37° C.” value in series [1] was 1%.
As to `CC(C)C[C@H](NC(=O)[C@H](CC(=O)O)NC(=O)[C@H](CC(C)C)NC(=O)[C@H](Cc1ccc(O)cc1)NC(=O)[C@H](CCCCN)NC(=O)[C@H](CO)NC(=O)[C@H](CC(C)C)NC(=O)[C@H](CC(=O)O)NC(=O)[C@H](CO)NC(=O)[C@@H](NC(=O)[C@H](Cc1ccccc1)NC(=O)[C@@H](NC(=O)CNC(=O)[C@H](CCC(N)=O)NC(=O)C1(NC(=O)[C@@H](N)Cc2c[nH]cn2)CCC1)[C@@H](C)O)[C@@H](C)O)C(=O)N[C@@H](CCCCN)C(=O)N[C@@H](CCCNC(=N)N)C(=O)N[C@@H](C)C(=O)N[C@@H](CCCNC(=N)N)C(=O)N[C@@H](CCC(=O)O)C(=O)N[C@@H](Cc1ccccc1)C(=O)N[C@H](C(=O)N[C@@H](CCC(N)=O)C(=O)N[C@@H](Cc1c[nH]c2ccccc12)C(=O)N[C@@H](CC(C)C)C(=O)N[C@@H](CC(C)C)C(=O)N[C@@H](CCCCNC(=O)CC[C@H](NC(=O)CC[C@H](NC(=O)COCCOCCNC(=O)COCCOCCNC(=O)CC[C@H](NC(=O)CC[C@H](NC(=O)CCCCCCCCCCCCCCCCC(=O)O)C(=O)O)C(=O)O)C(=O)O)C(=O)O)C(=O)N[C@H](C(N)=O)[C@@H](C)O)C(C)C` [Example 47, N^ε28-[(4S)-4-carboxy-4-[[(4S)-4-carboxy-4-[[2-[2-[2-[[2-[2-[2-[[(4S)-4-carboxy-4-[[(4S)-4-carboxy-4-(17-carboxyheptadecanoylamino)butanoyl]amino]butanoyl]amino]ethoxy]ethoxy]acetyl]amino]ethoxy]ethoxy]acetyl]amino]butanoyl]amino]butanoyl]-[Acb2,Leu10,Leu16,Lys17,Arg20,Glu21,Leu27,Lys28]-Glucagon amide] (H-H[Ac4c]QGTFTSDLSKYLDLKRAREFVQWLLK([γGlu-γGlu-AEEA-AEEA-γGlu-γGlu-C18 diacid])T-NH2; N-terminus assumed), the half-inhibitory concentration (IC50) at human GLP-1 receptor was determined as 200 pM. Also, the “Purity loss; 14 days at 37° C.” value in series [1] stood at 3%.
Turning to `CC(C)C[C@H](NC(=O)[C@H](CC(=O)O)NC(=O)[C@H](CC(C)C)NC(=O)[C@H](Cc1ccc(O)cc1)NC(=O)[C@H](CCCCN)NC(=O)[C@H](CO)NC(=O)[C@H](CC(C)C)NC(=O)[C@H](CC(=O)O)NC(=O)[C@H](CO)NC(=O)[C@@H](NC(=O)[C@H](Cc1ccccc1)NC(=O)[C@@H](NC(=O)CNC(=O)[C@H](CCC(N)=O)NC(=O)C1(NC(=O)[C@@H](N)Cc2c[nH]cn2)CCC1)[C@@H](C)O)[C@@H](C)O)C(=O)N[C@@H](CCCCN)C(=O)N[C@@H](CCCNC(=N)N)C(=O)N[C@@H](C)C(=O)N[C@@H](CCCNC(=N)N)C(=O)N[C@@H](CCC(=O)O)C(=O)N[C@@H](Cc1ccccc1)C(=O)N[C@H](C(=O)N[C@@H](CCC(N)=O)C(=O)N[C@@H](Cc1c[nH]c2ccccc12)C(=O)N[C@@H](CC(C)C)C(=O)N[C@@H](CC(C)C)C(=O)N[C@@H](CCCCNC(=O)CNC(=O)[C@H](CO)NC(=O)[C@H](CCC(=O)O)NC(=O)CNC(=O)[C@H](CO)NC(=O)CC[C@H](NC(=O)CC[C@H](NC(=O)CCCCCCCCCCCCCCCCC(=O)O)C(=O)O)C(=O)O)C(=O)N[C@H](C(N)=O)[C@@H](C)O)C(C)C` [Example 48] (I: H-H[Ac4c]QGTFTSDLSKYLDLKRAREFVQWLLKT-NH2 / II: {C18 diacid-γGlu-γGlu}-SGESG; amide I:28-II:C; N-terminus assumed), on human GLP-1 receptor, the IC50 was 200 pM. Moreover, in series [1], the “Purity loss; 14 days at 37° C.” value amounted to 2%.
As to `CC(C)C[C@H](NC(=O)[C@H](CC(=O)O)NC(=O)[C@H](CC(C)C)NC(=O)[C@H](Cc1ccc(O)cc1)NC(=O)[C@H](CCCCN)NC(=O)[C@H](CO)NC(=O)[C@H](CC(C)C)NC(=O)[C@H](CC(=O)O)NC(=O)[C@H](CO)NC(=O)[C@@H](NC(=O)[C@H](Cc1ccccc1)NC(=O)[C@@H](NC(=O)CNC(=O)[C@H](CCC(N)=O)NC(=O)C1(NC(=O)[C@@H](N)Cc2c[nH]cn2)CCC1)[C@@H](C)O)[C@@H](C)O)C(=O)N[C@@H](CCCNC(=N)N)C(=O)N[C@@H](CCCNC(=N)N)C(=O)N[C@@H](C)C(=O)N[C@@H](CCCNC(=N)N)C(=O)N[C@@H](CCC(=O)O)C(=O)N[C@@H](Cc1ccccc1)C(=O)N[C@H](C(=O)N[C@@H](CCC(N)=O)C(=O)N[C@@H](Cc1c[nH]c2ccccc12)C(=O)N[C@@H](CC(C)C)C(=O)N[C@@H](CC(C)C)C(=O)N[C@@H](CCCCNC(=O)CC[C@H](NC(=O)CC[C@H](NC(=O)COCCOCCNC(=O)COCCOCCNC(=O)CC[C@H](NC(=O)CC[C@H](NC(=O)CCCCCCCCCCCCCCCCC(=O)O)C(=O)O)C(=O)O)C(=O)O)C(=O)O)C(=O)N[C@H](C(N)=O)[C@@H](C)O)C(C)C` [Example 49, N^ε28-[(4S)-4-carboxy-4-[[(4S)-4-carboxy-4-[[2-[2-[2-[[2-[2-[2-[[(4S)-4-carboxy-4-[[(4S)-4-carboxy-4-(17-carboxyheptadecanoylamino)butanoyl]amino]butanoyl]amino]ethoxy]ethoxy]acetyl]amino]ethoxy]ethoxy]acetyl]amino]butanoyl]amino]butanoyl]-[Acb2,Leu10,Leu16,Arg20,Glu21,Leu27,Lys28]-Glucagon amide] (H-H[Ac4c]QGTFTSDLSKYLDLRRAREFVQWLLK([γGlu-γGlu-AEEA-AEEA-γGlu-γGlu-C18 diacid])T-NH2; N-terminus assumed), the IC50 on human GLP-1 receptor was found to be 400 pM. In addition, the “Purity loss; 14 days at 37° C.” value in series [1] is given as 2%.
Turning to `CC(C)C[C@H](NC(=O)[C@H](Cc1c[nH]c2ccccc12)NC(=O)[C@H](CCC(N)=O)NC(=O)[C@@H](NC(=O)[C@H](Cc1ccccc1)NC(=O)[C@H](CCC(=O)O)NC(=O)[C@H](CCCNC(=N)N)NC(=O)[C@H](C)NC(=O)[C@H](CCCNC(=N)N)NC(=O)[C@H](CCCNC(=N)N)NC(=O)C(C)(C)NC(=O)[C@H](CC(=O)O)NC(=O)[C@H](CC(C)C)NC(=O)[C@H](Cc1ccc(O)cc1)NC(=O)[C@H](CCCCN)NC(=O)[C@H](CO)NC(=O)[C@H](CC(C)C)NC(=O)[C@H](CC(=O)O)NC(=O)[C@H](CO)NC(=O)[C@@H](NC(=O)[C@H](Cc1ccccc1)NC(=O)[C@@H](NC(=O)CNC(=O)[C@H](CCC(N)=O)NC(=O)C(C)(C)NC(=O)[C@@H](N)Cc1c[nH]cn1)[C@@H](C)O)[C@@H](C)O)C(C)C)C(=O)N[C@@H](CC(C)C)C(=O)N[C@@H](CCCCNC(=O)CC[C@H](NC(=O)CC[C@H](NC(=O)COCCOCCNC(=O)COCCOCCNC(=O)CC[C@H](NC(=O)CCCCCCCCCCCCCCCCC(=O)O)C(=O)O)C(=O)O)C(=O)O)C(=O)N[C@H](C(N)=O)[C@@H](C)O` [Example 51, N^ε28-[(4S)-4-carboxy-4-[[(4S)-4-carboxy-4-[[2-[2-[2-[[2-[2-[2-[[(4S)-4-carboxy-4-(17-carboxyheptadecanoylamino)butanoyl]amino]ethoxy]ethoxy]acetyl]amino]ethoxy]ethoxy]acetyl]amino]butanoyl]amino]butanoyl]-[Aib2,Leu10,Aib16,Arg20,Glu21,Leu27,Lys28]-Glucagon amide] (H-H[Aib]QGTFTSDLSKYLD[Aib]RRAREFVQWLLK([γGlu-γGlu-AEEA-AEEA-γGlu-C18 diacid])T-NH2; N-terminus assumed), the IC50 at human GLP-1 receptor is 700 pM. For the same molecule, the “Purity loss; 14 days at 37° C.” value in series [1] was determined as 3%.

What is called IC50 is the concentration that inhibits the measured activity by half.

Source of the values: patent publication US9474790B2, “Stable, protracted GLP-1/glucagon receptor co-agonists for medical use” (Novo Nordisk A/S, priority 2013, dated 2016).
